Laboratory results from article PMC6094047 (Antiviral Research, 2018).
“And” between values parts separate entries of the source, which are not always exact repeats. Equal values may be shown once. Read-outs that look alike come from different tables or passages of the source.

What was measured:
[1] = test system: A(H1N1)pdm09 virus neuraminidase (NA); format: biochemical, influenza A(H1N1)pdm09 virus
[2] = test system: A(H1N1)pdm09 virus neuraminidase (NA); details: cited from earlier work; for fold increases in IC50s compared to the mean IC50s: previously described A(H1N1)pdm09 virus with S110F AAS, ref Okomo-Adhiambo et al., 2014
[3] = test system: B/Victoria-lineage virus neuraminidase (NA); format: biochemical, influenza B/Victoria-lineage virus
[4] = test system: A(H3N2) virus neuraminidase (NA); format: biochemical, influenza A(H3N2) virus
[5] = A(H1N1)pdm09 NA H275Y, ref WHO-AVWG NAI substitution table

Structure (SMILES)	IC50 fold-change compared to reference median IC50 values [1]	inhibition phenotype associated with NA AAS (NI/RI/HRI) [2]	Fold change in IC50 [3]	Fold change in IC50 [4]	inhibition phenotype (NI/RI/HRI) [4]	fold increases in IC50s compared to the mean IC50s [2]	inhibition phenotype associated with NA AAS (NI/RI/HRI) [2, 5]
[H]/N=C(\N)N[C@H]1C=C(C(=O)O)O[C@@H]([C@H](OC)[C@H](O)CO)[C@@H]1NC(C)=O [Laninamivir]	1.5–3.4 (8) fold and 2.9 fold	HRI (key: normal inhibition (NI) (type A viruses <10-fold; reduced inhibition (RI) (type A viruses 10- to 100-fold; highly reduced inhibition (HRI) (type A viruses >100-fold)	1.8 fold and 2.2 fold	–	–	–	–
CC(=O)N[C@H]1[C@H]([C@H](O)[C@H](O)CO)OC(C(=O)O)=C[C@@H]1N=C(N)N [Zanamivir]	–	–	1.4 fold and 2.0 fold	11 fold and 8.1 fold and 9.1 fold	RI (key: normal inhibition (NI) (type A viruses <10-fold; reduced inhibition (RI) (type A viruses 10- to 100-fold; highly reduced inhibition (HRI) (type A viruses >100-fold)	3–6 fold	–
CCOC(=O)C1=C[C@@H](OC(CC)CC)[C@H](NC(C)=O)[C@@H](N)C1 [Oseltamivir]	–	HRI (key: normal inhibition (NI) (type A viruses <10-fold; reduced inhibition (RI) (type A viruses 10- to 100-fold; highly reduced inhibition (HRI) (type A viruses >100-fold)	4.1 fold and 2.9 fold	14 fold	RI (key: normal inhibition (NI) (type A viruses <10-fold; reduced inhibition (RI) (type A viruses 10- to 100-fold; highly reduced inhibition (HRI) (type A viruses >100-fold)	3–6 fold	HRI (highly reduced inhibition (HRI) (type A viruses >100-fold)
CCC(CC)[C@H](NC(C)=O)[C@@H]1[C@H](O)[C@@H](C(=O)O)C[C@H]1N=C(N)N [Peramivir]	–	–	30 fold and 26 fold	–	–	–	HRI (highly reduced inhibition (HRI) (type A viruses >100-fold)
